Results on two compounds are retold here after patent US20120178147A1, “MICROBIAL CULTURES AND METHODS FOR ANAEROBIC BIOREMEDIATION” (priority 2009, published 2012).

“Also recorded” adds a separate entry of the source.

For series [1] the following is noted: at 25° C.; cited from earlier work.
The conditions of series [2]: anaerobic conditions, within 70 days; cited from earlier work.
The subject of the next series is Dehalococcoides. The series can be described thus: qRT-PCR of Dehalococcoides 16S rRNA genes in DehaloR̂2 cultures. Format: cell-based. The note with it: for effect on growth / gene copy number of Dehalococcoides in DehaloR̂2 cultures: 1.5 μM TCC or 35 μM TCS. As to the method: Quantitative real-time PCR (qRT-PCR) was performed for enumeration of general 16S rRNA genes and Dehalococcoides 16S rRNA genes in culture DehaloR̂2 and Bio-Dechlor INOCULUM. The primers used for general 16S rRNA genes were Bac1055F (5′-ATG GYT GTC GTC ACCT-3′) and Bac1392R (5′-ACG GGC GGT GTG TAC-3′) (Ritalahti et al., 2006), and the probe was Bac16sTaq (FAM-CAA CGA GCG CAA CCC/3-BHQ-1/). The final volume of PCR reactions was 10 μL, and the final concentration of each chemical in a single reaction tube was: 1× RealMasterMix (Fisher Scientific, Pittsburgh, Pa.), 300 nM Probe, 300 nM each Primer, and 130 nM DNA samples. The PCR conditions were as follows: 2 min at 95° C. followed by 40 cycles of 10 s at 95° C., 20 s at 56° C. and 20 s at 68° C. The primers used for Dehalococcoides 16S rRNA genes were Dhc1200F (5′-CTGGAGCTAATCCCCAAAGCT-3′) and Dhc1271R (5′-CAA CTT CAT GCA GGC GGG-3′), and the probe was Dhc1240Pr (FAM-TCCTCAGTTCGGATTGCAGGC TGAA/3-BHQ-1) (He et al., 2003b). The final volume of PCR reactions was 10 μL, and the final concentration of each chemical in a single reaction tube was: 1× RealMasterMix (Fisher Scientific, Pittsburgh, Pa.), 200 nM Probe, 700 nM each Primer, and 130 nM DNA samples. The PCR conditions were as follows: 2 min at 95° C. followed by 40 cycles of 15 s at 95° C., 20 s at 58° C. and 20 s at 68° C.
Quantitative Real time PCR (qRT-PCR) was carried out in a spectrofluorimetric thermal cycler (Master cycler, epgradient S, Eppendorf). Calibration curves were performed in triplicate and a linear range of 6 orders of magnitude was obtained. Plasmids containing Dehalococcoides strain BAV1 16S rRNA genes were used as standards to construct general 16S rRNA genes and Dehalococcoides 16S rRNA genes calibration curves. The slopes of the calibration curves for general 16S rRNA genes and Dehalococcoides 16S rRNA genes were −3.46 and −3.94, and the Y intercepts were 38 and 44.2, respectively.
DNA Extraction and Quantitative Real-Time PCR. The BDI cultures and DehaloR^2 cultures were shaken vigorously first and then 10 ml of the mixed liquid was removed with a sterile syringe and dispensed into 10 1.5 ml micro centrifuge tubes. These micro centrifuge tubes were then centrifuged at 13,000 rpm for 15 min in order to make a pellet, and the pellet was used for DNA extraction. Qiagen DNeasy Blood & Tissue Kit with modifications to enhance lysis was used for DNA isolation from cultures. DNA samples were stored at −20° C.
Quantitative real-time PCR (qRT-PCR) was performed for enumeration of general 16S rRNA genes and Dehalococcoides 16S rRNA genes in BDI culture without TCC&TCS, BDI culture with 1.5 μM TCC, BDI culture with 35 μM TCS, D DehaloR̂2 culture without TCC&TCS, DehaloR^2 culture with 1.5 μM TCC and DehaloR̂2^2 culture with 35 μM TCS.
The primers used for Dehalococcoides 16S rRNA genes were Dhc1200F (5′-[…]-3′) and Dhc1271R (5′-CAACTTCATGCAGGCGGG-3′), and the probe was Dhc1240Pr (FAM-[…]/3-BHQ-1) (He et al., 2003b). The final volume of PCR reactions was 10 μL, and the final concentration of each chemical in a single reaction tube was: 1× RealMasterMix (Fisher Scientific, Pittsburgh, Pa.), 200 nM Probe, 700 nM each Primer, and 130 nM DNA samples. The PCR conditions were as follows: 2 min at 95° C. followed by 40 cycles of 15 s at 95° C., 20 s at 58° C. and 20 s at 68° C.
The qRT-PCR was carried out in a spectrofluorimetric thermal cycler (Master cycler, epgradient S, Eppendorf). […]
For orientation: In qPCR the cycle at which signal appears reflects the starting amount.

For series [3] the following is noted: at 25° C., pH 7; cited from earlier work.

As for `O=C(Nc1ccc(Cl)cc1)Nc1ccc(Cl)c(Cl)c1` [TCC, 3-(4-chlorophenyl)-1-(3,4-dichlorphenyl) urea], the Vapor pressure in series [1] was 3.61 × 10^−9 mm Hg. In series [2], the biodegradation in soil entry was “little biodegradation”. In addition, the “effect on growth / gene copy number of Dehalococcoides in DehaloR̂2 cultures” value in the series with Dehalococcoides is “did not exert any inhibitory effect on the growth of Dehalococcoides”. In addition, in the series with Dehalococcoides (DehaloR̂2 with 1.5 μM TCC), the “Dehalococcoides 16S rRNA gene copies, day 22” value is reported as 3.9×10^7 gene copies/ml; the “Dehalococcoides 16S rRNA gene copies, day 22 relative to initial” value is 11.6 times; the “Dehalococcoides 16S rRNA gene copies, initial” value is given as 3.3×10^6 gene copies/ml. Further, the “Partition Coefficient” value in series [3] is on record as 4.9 Log Pow.
Turning to `Oc1cc(Cl)ccc1Oc1ccc(Cl)cc1Cl` [TCS, 5-chloro-2-[2,4-dichloro-phenoxy]-phenol], the Vapor pressure in series [1] is 4.65 × 10^−6 mm Hg. Besides, the biodegradation in soil entry in series [2] was “little biodegradation”. For the same compound, in the series on Dehalococcoides, the “effect on growth / gene copy number of Dehalococcoides in DehaloR̂2 cultures” value is recorded as “almost remained constant; also recorded: significantly inhibited the growth of Dehalococcoides”. Also, the “Partition Coefficient” value in series [3] is given as 4.8 Log Pow.
